Laboratory results as given in patent publication US20230017532A1 (Hoffmann-La Roche Inc., priority 2018, published 2023).
Where a name gives a salt, the structure may show the parent alone.

Tested on: Acinetobacter baumannii ATCC17978
Test: Antimicrobial susceptibility testing: 90% growth inhibitory concentration (IC90) determination, Iso-Sensitest broth, OD 600 nm
Type: cell-based
Conditions: 90% growth inhibitory concentration, Acinetobacter baumannii ATCC17978, Iso-Sensitest broth, OD 600 nm over 16 h; read-out: ATCC 17978 IC90
Summary of the method: (§1)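 Twofold serial dilutions (e.g. 50–0.097 μM final) incubated with ~5×10^5 CFU/ml in Iso-Sensitest broth at 35±2 °C. OD600 read every 20 min for 16 h; IC90 derived from growth inhibition during logarithmic phase.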

IC90 [nM] | SMILES
55 | CCc1cc(Nc2nccn3c(-c4ccc(OCC#N)c(F)c4F)cnc23)ccc1C(=O)NCCOCCN [Example 85, N-[2-(2-aminoethoxy)ethyl]-4-[[3-[4-(cyano-methoxy)-2,3-difluorophenyl]imidazo[1,2-a]pyrazin-8-yl]amino]-2-ethyl-benzamide;2,2,2-trifluoroacetic acid]

Same assay, conditions: Acinetobacter baumannii, ATCC17978, 16 h, 90% growth inhibitory concentration, Acinetobacter baumannii ATCC17978, Iso-Sensitest broth, OD 600 nm over 16 h; read-out: ATCC 17978 IC90

IC90 [nM] | SMILES
5100 | Cc1cc(Nc2nccn3c(-c4ccc(Cl)c(F)c4F)cnc23)ccc1C(=O)NCCNCCO [Example 80, 4-[[3-(4-chloro-2,3-difluorophenyl)imidazo[1,2-a]pyrazin-8-yl]amino]-N-[2-(2-hydroxy-ethylamino)ethyl]-2-methyl-benzamide; hydrochloride]
8100 | COc1ccc(-c2cnc3c(Nc4ccc(C(=O)NCCCOCC(=O)O)c(C)c4)nccn23)cc1F [Example 157, 2-[3-[[4-[[3-(3-fluoro-4-methoxyphenyl)imidazo[1,2-a]pyrazin-8-yl]amino]-2-methylbenzoyl]amino]propoxy] acetic acid]
210 | Cc1cc(Nc2nccn3c(-c4ccc(Cl)c(F)c4F)cnc23)ccc1C(=O)NCCOCCN [Example 88, N-[2-(2-aminoethoxy)ethyl]-4-[[3-(4-chloro-2,3-difluorophenyl)imidazo[1,2-a]pyrazin-8-yl]amino]-2-methylbenzamide; hydrochloride]
1200 | Cc1cc(Nc2nccn3c(-c4ccc(OC(F)F)cc4)cnc23)ccc1C(=O)NCCOCCNC(=O)CN1CCN(C)CC1 [Example 143, 4-[[3-[4-(difluoro-methoxy)phenyl]imidazo [1,2-a]pyrazin-8-yl]amino]-2-methyl-N-[2-[2-[[2-(4-methylpiperazin-1-yl)acetyl]amino]ethoxy]ethyl] benzamide]
160 | CNC(=O)COCCNC(=O)c1ccc(Nc2nccn3c(-c4ccc(OC(F)F)cc4)cnc23)cc1C [Example 11, 4-((3-(4-(difluoromethoxy)phenyl)imidazo[1,2-a]pyrazin-8-yl)amino)-2-methyl-N-(2-(2-(methylamino)-2-oxoethoxy)ethyl)benzamide]
590 | CCc1cc(Nc2nccn3c(-c4ccc(OC)c(F)c4F)cnc23)ccc1C(=O)NCCCNCCCN [Example 184, N-[3-(3-aminopropyl-amino)propyl]-4-[[3-(2,3-difluoro-4-methoxyphenyl)imidazo[1,2-a]pyrazin-8-yl]amino]-2-ethyl-benzamide;2,2,2-trifluoroacetic acid]
720 | COc1ccc(-c2cnc3c(Nc4ccc(C(=O)NCCOCCN5CCOC5=O)c(C)c4)nccn23)cc1 [Example 76, 4-[[3-(4-methoxyphenyl)imidazo[1,2-a]pyrazin-8-yl]amino]-2-methyl-N-[2-[2-(2-oxo-1,3-oxazolidin-3-yl)ethoxy]ethyl] benzamide]
1000 | CCCCC(=O)NCCOCCNC(=O)c1ccc(Nc2nccn3c(-c4ccc(OC)cc4)cnc23)cc1C [Example 141, 4-[[3-(4-methoxyphenyl)imidazo[1,2-a]pyrazin-8-yl]amino]-2-methyl-N-[2-[2-(pentanoylamino)ethoxy]ethyl] benzamide]
130 | CCc1cc(Nc2nccn3c(-c4ccc(OC)c(F)c4F)cnc23)ccc1C(=O)NCCOCCN(C)C [Example 169, 4-[[3-(2,3-difluoro-4-methoxyphenyl)imidazo[1,2-a]pyrazin-8-yl]amino]-N-[2-[2-(dimethylamino)ethoxy]ethyl]-2-ethylbenzamide]
440 | Cc1cc(Nc2nccn3c(-c4ccc(Cl)cc4)cnc23)ccc1C(=O)NCCOCCN [Example 99, N-[2-(2-aminoethoxy)ethyl]-4-[[3-(4-chlorophenyl)imidazo[1,2-a]pyrazin-8-yl]amino]-2-methylbenzamide; hydrochloride]
530 | COc1ccc(-c2cnc3c(Nc4ccc(C(=O)NCCOCCNS(C)(=O)=O)c(C)c4)nccn23)cc1 [Example 109, N-[2-[2-(methane-sulfonamido)ethoxy]ethyl]-4-[[3-(4-methoxyphenyl)imidazo[1,2-a]pyrazin-8-yl]amino]-2-methylbenzamide]
370 | CCc1cc(Nc2nccn3c(-c4ccc(OC)c(F)c4F)cnc23)ccc1C(=O)NCCCCNCC(=O)O [Example 197, (4-(4-((3-(2,3-difluoro-4-methoxyphenyl)imidazo[1,2-a]pyrazin-8-yl)amino)-2-ethylbenzamido)butyl)glycine hydrochloride]
260 | CCc1cc(Nc2nccn3c(-c4ccc(Cl)c(F)c4F)cnc23)ccc1C(=O)NCCOCCNCCO [Example 92, 4-[[3-(4-chloro-2,3-difluoro-phenyl)imidazo [1,2-a]pyrazin-8-yl]amino]-2-ethyl-N-[2-[2-(2-hydroxyethyl-amino)ethoxy]ethyl]benzamide]
160 | CCc1cc(Nc2nccn3c(-c4ccc(OCC#N)c(F)c4F)cnc23)ccc1C(=O)NCCOCCN(C)C [Example 21, 4-[[3-[4-(cyanomethoxy)-2,3-difluoro-phenyl]imidazo[1,2-a]pyrazin-8-yl]amino]-N-[2-[2-(dimethylamino)ethoxy]ethyl]-2-ethyl-benzamide]
820 | COc1ccc(-c2cnc3c(Nc4ccc(C(=O)NCCOCC(=O)N5CCOC(CN)C5)c(C)c4)nccn23)cc1F (stereo not shown) [Example 135, N-[2-[2-[2-(aminomethyl)morpholin-4-yl]-2-oxoethoxy]ethyl]-4-[[3-(3-fluoro-4-methoxyphenyl)imidazo[1,2-a]pyrazin-8-yl]amino]-2-methylbenzamide; hydrochloride]
790 | COc1ccc(-c2cnc3c(Nc4ccc(C(=O)N(C)CCOCCN5CCNCC5)c(C)c4)nccn23)cc1 [Example 133, formic acid; 4-[[3-(4-methoxyphenyl)imidazo[1,2-a]pyrazin-8-yl]amino]-N,2-dimethyl-N-[2-(2-piperazin-1-ylethoxy)ethyl] benzamide]
350 | CNCCCCNC(=O)c1ccc(Nc2nccn3c(-c4ccc(OC)c(F)c4)cnc23)cc1C [Example 161, 4-[[3-(3-fluoro-4-methoxyphenyl)imidazo[1,2-a]pyrazin-8-yl]amino]-2-methyl-N-[4-(methyl-amino)butyl] benzamide; hydrochloride]
620 | Cc1cc(Nc2nccn3c(-c4ccc(Cl)c(F)c4F)cnc23)ccc1C(=O)NCCNCCN [Example 122, N-[2-(2-aminoethylamino)ethyl]-4-[[3-(4-chloro-2,3-difluorophenyl)imidazo[1,2-a]pyrazin-8-yl]amino]-2-methylbenzamide; hydrochloride]
310 | CCc1cc(Nc2nccn3c(-c4ccc(OCC(=O)OC)c(F)c4F)cnc23)ccc1C(=O)NCCOCCN [Example 172, formic acid; methyl 2-[4-[8-[4-[2-(2-aminoethoxy)ethylcarbamoyl]-3-ethylanilino]imidazo[1,2-a]pyrazin-3-yl]-2,3-difluorophenoxy] acetate]
1600 | Cc1cc(Nc2nccn3c(-c4ccc(OC(F)F)cc4)cnc23)ccc1C(=O)NCCOCCOCCOCCO [Example 152, 4-[[3-[4-(difluoro-methoxy)phenyl]imidazo [1,2-a]pyrazin-8-yl]amino]-N-[2-[2-[2-(2-hydroxyethoxy)ethoxy]ethoxy]ethyl]-2-methylbenzamide]

Same assay, conditions: Acinetobacter baumannii, ATCC17978, 16 h, read-out: ATCC 17978 IC90

SMILES | IC90 [nM]
CCc1cc(Nc2nccn3c(-c4ccc(OC)c(F)c4F)cnc23)ccc1C(=O)NCCOCCOCCN [Example 65, N-(2-(2-(2-Aminoethoxy)ethoxy)ethyl)-4-((3-(2,3-difluoro-4-methoxyphenyl)imidazo[1,2-a]pyrazin-8-yl)amino)-2-ethylbenzamide dihydrochloride] | 72
COc1ccc(-c2cnc3c(Nc4ccc(C(=O)NCCOCCN)c(C)c4)nccn23)c(F)c1F [Example 5, N-(2-(2-aminoethoxy)ethyl)-4-((3-(2,3-difluoro-4-methoxyphenyl)imidazo[1,2-a]pyrazin-8-yl)amino)-2-methylbenzamide hydrochloride] | 65
COc1ccc(-c2cnc3c(Nc4cc(F)c(C(=O)NCCOCCN)c(Cl)c4)nccn23)c(F)c1F [Example 60, dihydrochloride] | 91
COc1ccc(-c2cnc3c(Nc4ccc(C(=O)NCCOCCN)c(CC(F)F)c4)nccn23)c(F)c1F [Example 75, N-[2-(2-aminoethoxy)ethyl]-2-(2,2-difluoroethyl)-4-[[3-(2,3-difluoro-4-methoxy-phenyl)imidazo[1,2-a]pyrazin-8-yl]amino]benzamide; formic acid] | 160
Cc1cc(Nc2nccn3c(-c4ccc(F)c(F)c4F)cnc23)ccc1C(=O)NCCOCCN [Example 37, N-(2-(2-aminoethoxy)ethyl)-2-methyl-4-((3-(2,3,4-trifluorophenyl)imidazo[1,2-a]pyrazin-8-yl)amino)benzamide hydrochloride] | 370

Tested on: Acinetobacter baumannii ATCC17961
Test: as above
Type: cell-based
Conditions: 90% growth inhibitory concentration, Acinetobacter baumannii ATCC17961, Iso-Sensitest broth, OD 600 nm over 16 h; read-out: ATCC 17961 IC90
Summary of the method: as §1

IC90 [nM] | SMILES
80 | COc1ccc(-c2cnc3c(Nc4ccc(C(=O)NCCCNCCO)c(Cl)c4)nccn23)c(F)c1F [Example 221, 2-chloro-4-((3-(2,3-difluoro-4-methoxyphenyl)imidazo[1,2-a]pyrazin-8-yl)amino)-N-(3-((2-hydroxyethyl)amino)propyl) benzamide 2-chloro-4-((3-(2,3-difluoro-4-methoxyphenyl)imidazo[1,2-a]pyrazin-8-yl)amino)-N-(3-((2-hydroxyethyl)amino)propyl)benzamide]
580 | CCc1cc(Nc2nccn3c(-c4ccc(OC)c(F)c4F)cnc23)ccc1C(=O)N[C@@H](C)CNCCN [Example 219, N-[(1S)-2-(2-aminoethyl-amino)-1-methyl-ethyl]-4-[[3-(2,3-difluoro-4-methoxy-phenyl)imidazo[1,2-a]pyrazin-8-yl]amino]-2-ethyl-benzamide; formic acid]
